Data set [1] in a line: Half life in C57BL/6 mouse at 1 mg/kg, iv or 2 mg/kg, po. Particulars: in vivo. The format is ADME, organism-based.
Another data set deals with Cytochrome P450 2C9 (Homo sapiens, UniProt P11712). As to the kind of experiment: Inhibition of CYP2C9 in human liver microsomes using diclofenac substrate. Type of data set: ADME, Microsome. (Liver microsomes are vesicles of endoplasmic reticulum, rich in cytochrome P450 enzymes.)
The nature of data set [2]: Plasma clearance in C57BL/6 mouse at 1 mg/kg, iv or 2 mg/kg, po. Type of data set: ADME, organism-based.
Data set [3] in a line: Cmax in C57BL/6 mouse at 2 mg/kg, po. The format is ADME, organism-based. Also on record: dose 2 mg/kg, route oral. Particulars: in vivo.
The nature of data set [4]: Volume of distribution at steady state in C57BL/6 mouse at 1 mg/kg, iv or 2 mg/kg, po. The format is ADME, organism-based. The conditions noted are these: in vivo, read-out: Vdss.
In the next data set the target is T1, Cytochrome P450 2C8 (Homo sapiens, UniProt P10632).
T1 sequence (P10632 whole entry): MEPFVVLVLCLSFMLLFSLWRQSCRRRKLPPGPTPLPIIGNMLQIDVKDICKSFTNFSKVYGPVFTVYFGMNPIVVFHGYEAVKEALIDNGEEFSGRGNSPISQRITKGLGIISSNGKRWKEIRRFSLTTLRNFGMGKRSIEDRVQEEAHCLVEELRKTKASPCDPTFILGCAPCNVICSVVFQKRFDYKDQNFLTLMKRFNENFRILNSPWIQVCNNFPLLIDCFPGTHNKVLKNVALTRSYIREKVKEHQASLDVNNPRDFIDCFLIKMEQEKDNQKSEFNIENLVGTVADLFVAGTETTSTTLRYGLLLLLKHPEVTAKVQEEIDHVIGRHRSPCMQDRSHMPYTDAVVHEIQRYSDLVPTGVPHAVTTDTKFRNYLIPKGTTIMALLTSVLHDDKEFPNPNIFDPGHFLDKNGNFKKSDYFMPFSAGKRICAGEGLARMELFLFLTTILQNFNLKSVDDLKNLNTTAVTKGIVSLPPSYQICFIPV
As to the kind of experiment: Inhibition of CYP2C8 in human liver microsomes using montelukast substrate. Type of data set: ADME, Microsome.

The nature of data set [5]: Oral bioavailability in C57BL/6 mouse at 2 mg/kg. The conditions noted are these: in vivo. The format is ADME, organism-based.
For another data set, the system named is Adipocyte. The data set is described as follows: Inhibition of lipolysis in IBMX-stimulated human adipocytes assessed as glycerol release after 5 hrs. Type of data set: functional, cell-based.
Data set [6] has as its system Rattus norvegicus. The data set is described as follows: Toxicity in Sprague-Dawley rat assessed as induction of intense flushing by measuring blood perfusion change by Doppler flometry at 100 mg/kg, sc. Also on record: dose 100 mg/kg, route subcutaneous. The format is organism-based. The conditions noted are these: in vivo.
The subject of data set [7] is Rattus norvegicus. The data set is described as follows: Plasma concentration in Sprague-Dawley rat at 100 mg/kg, sc. Also on record: dose 100 mg/kg, route subcutaneous. Particulars: in vivo. The format is ADME, organism-based.
The test system of data set [8] is Rattus norvegicus. The data set is described as follows: Toxicity in Sprague-Dawley rat assessed as plasma concentration at threshold dose for vasodilation at 100 mg/kg, sc. Type of data set: organism-based. Also on record: dose 100 mg/kg, route subcutaneous. The conditions noted are these: in vivo, read-out: Activity.
Data set [9] has as its system Rattus norvegicus. As to the kind of experiment: Reduction in free fatty acid level in 18 hrs fasted Sprague-Dawley rat at 100 mg/kg, po. Set-up: dose 100 mg/kg. The format is functional, organism-based.
The target in data set [10] is Hydroxycarboxylic acid receptor 2 (Rattus norvegicus, UniProt Q80Z39). As to the kind of experiment: Agonist activity at rat GPR109A expressed by [35S]GTPgammaS binding assay. The format is functional. On the technique in general: GTPγS is a poorly hydrolysed GTP analogue; its binding reports G protein activation.
Sequence of Hydroxycarboxylic acid receptor 2 (Q80Z39 whole entry): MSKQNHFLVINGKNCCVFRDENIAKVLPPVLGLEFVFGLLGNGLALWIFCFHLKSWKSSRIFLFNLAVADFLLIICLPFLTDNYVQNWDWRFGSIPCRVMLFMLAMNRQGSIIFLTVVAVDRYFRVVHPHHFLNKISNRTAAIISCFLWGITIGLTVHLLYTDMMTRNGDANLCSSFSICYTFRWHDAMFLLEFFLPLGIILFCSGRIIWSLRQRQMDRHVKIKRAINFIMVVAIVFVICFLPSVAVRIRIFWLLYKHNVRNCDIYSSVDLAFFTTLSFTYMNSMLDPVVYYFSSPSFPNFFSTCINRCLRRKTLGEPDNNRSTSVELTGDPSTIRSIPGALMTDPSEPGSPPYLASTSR
A short description of data set [11]: Therapeutic index, ratio of plasma concentration at threshold dose for vasodilation to IC50 for free fatty acid reduction in Sprague-Dawley rat. The format is cell-free. The conditions noted are these: read-out: TI.
In data set [12] the test system is Rattus norvegicus. The data set is described as follows: Reduction in free fatty acid level in 18 hrs fasted po dosed Sprague-Dawley rat. Type of data set: functional, organism-based.
The test system of data set [13] is Rattus norvegicus. The data set is described as follows: Toxicity in Sprague-Dawley rat assessed as plasma concentration at threshold dose for vasodilation at 1 mg/kg, sc. Particulars: read-out: Activity, in vivo.
The test system of data set [14] is Rattus norvegicus. As to the kind of experiment: Plasma concentration in Sprague-Dawley rat at 1 mg/kg, sc. Particulars: read-out: Cp, in vivo.

Here are results for 21 compounds from ChEMBL document CHEMBL1154005 (J Med Chem, 2009).

Activity calls are given as the source filed them.

Sequence of Cytochrome P450 2C9 (P11712 whole entry): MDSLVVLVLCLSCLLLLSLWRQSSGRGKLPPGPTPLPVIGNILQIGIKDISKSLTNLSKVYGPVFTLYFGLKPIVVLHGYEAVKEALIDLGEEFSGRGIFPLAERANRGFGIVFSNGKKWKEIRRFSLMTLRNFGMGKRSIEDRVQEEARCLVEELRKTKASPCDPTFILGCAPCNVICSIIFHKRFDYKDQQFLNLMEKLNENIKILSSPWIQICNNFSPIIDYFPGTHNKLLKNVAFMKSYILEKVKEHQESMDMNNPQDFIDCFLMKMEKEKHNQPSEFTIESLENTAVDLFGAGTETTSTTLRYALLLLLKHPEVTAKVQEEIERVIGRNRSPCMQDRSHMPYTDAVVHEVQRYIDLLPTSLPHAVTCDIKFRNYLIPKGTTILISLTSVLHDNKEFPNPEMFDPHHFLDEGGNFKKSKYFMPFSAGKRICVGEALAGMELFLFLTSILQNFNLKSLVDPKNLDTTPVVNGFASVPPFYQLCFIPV

One may read the half-life as the time in which the quantity being followed falls by half. A word on the IC50: it is the concentration that inhibits the measured activity by half. The term Cmax denotes the peak of the concentration-time curve. For orientation: bioavailability means the share of a dose that reaches the circulation, judged against a reference dose that is usually intravenous. A low value points to poor availability. `O=C(CCc1noc2c1CCc1cc(O)ccc1-2)Nc1ccccc1C(=O)O` had a half-life in data set [1] of 108 min. For the same compound, the results for the IC50 on Cytochrome P450 2C9 and against Cytochrome P450 2C8 were 2.2 µM and 5.9 µM, respectively. In [2], this compound showed a clearance of 9.7 mL/min/kg. Further, the Cmax in data set [3] worked out at 620 nM. Besides, the Vd in [4] was determined as 1.1 L/kg. This compound also had a bioavailability in data set [5] of 8.2%.

For the compound `O=C(CCc1cn2c(n1)sc1cc(O)ccc12)Nc1ccccc1C(=O)O`, the IC50 in the data set with Adipocyte worked out at 200 nM.

On Cytochrome P450 2C9, `O=C(CCc1noc2c1ccc1cc(O)ccc12)NC1=C(C(=O)O)CCCC1` came in with an IC50 of 12 µM.

Take `O=C(CCc1noc2c1CCc1cc(O)ccc1-2)NC1=C(C(=O)O)CCC1`: the half-life in [1] is 114 min. The IC50 against Cytochrome P450 2C9 and at Cytochrome P450 2C8 was 47 µM throughout. Besides, the clearance in data set [2] came to 4.1 mL/min/kg. This compound came in with a Cmax in [3] of 1830 nM. The Vd in data set [4] stood at 0.2 L/kg. Further, the bioavailability in [5] worked out at 7.5%.

`O=C(CCc1nnn2c1ccc1cc(O)ccc12)Nc1ccccc1C(=O)O` showed a half-life in data set [1] of 102 min. Moreover, the IC50 in the data set with Adipocyte stood at 20 nM; at Cytochrome P450 2C9, 1.5 µM. In data set [2], the clearance worked out at 7 mL/min/kg. Further, the concentration in data set [3] peaked (Cmax) at 170 nM. In [4], the Vd was 0.95 L/kg. Also, the bioavailability in data set [5] was 6%.

For the compound `O=C(CCc1[nH]nc2c1ccc1cc(O)ccc12)Nc1ccccc1C(=O)O`, the IC50 with Adipocyte was found to be 60 nM; against Cytochrome P450 2C9, 9.2 µM; against Cytochrome P450 2C8, 5.8 µM.

Compound `O=C(CCc1[nH]nc2c1CCc1cc(O)ccc1-2)Nc1ccccc1C(=O)O` gave a half-life in [1] of 126 min. The values for the IC50 with Adipocyte, against Cytochrome P450 2C9 and at Cytochrome P450 2C8 were 280 nM, 26 µM and 23 µM, respectively. Moreover, the clearance in data set [2] was 2.4 mL/min/kg. In data set [3], this compound displayed a Cmax of 73 nM. Also, the Vd in [4] was 0.44 L/kg. In addition, the bioavailability in data set [5] worked out at 1.4%.

In the case of `Cn1c(=O)c2cc(O)ccc2c2ccc(CCC(=O)Nc3ccccc3C(=O)O)cc21`, the half-life in [1] was 138 min. The same compound registered an IC50 against Cytochrome P450 2C9 of 4.7 µM. The same compound gave a clearance in data set [2] of 1.4 mL/min/kg. The same compound had a Cmax in data set [3] of 1260 nM. For the same compound, the Vd in [4] worked out at 0.26 L/kg. This compound also came in with a bioavailability in data set [5] of 10%.

Take `O=C(CCc1cn2c(n1)sc1cc(O)ccc12)NC1=C(C(=O)O)CCC1`: at Cytochrome P450 2C9, the IC50 is 12 µM.

Regarding `O=C(CCc1noc2c1CCc1cc(O)ccc1-2)NC1=C(C(=O)O)CCCC1`, the 50% inhibitory concentration (IC50) at Cytochrome P450 2C9 was 11 µM; against Cytochrome P450 2C8, 44 µM.

The term EC50 denotes the concentration giving half of the maximal effect. Low values mean greater potency, high ones weaker potency. `O=C(CCc1cnn2c1CCc1cc(O)ccc1-2)Nc1ccccc1C(=O)O` showed a half-life in [1] of 174 min. Besides, the Activity result with Rattus norvegicus [6] was “Not Active”. The IC50 with Adipocyte was determined as 110 nM; against Cytochrome P450 2C9 it was 18 µM; against Cytochrome P450 2C8, 11 µM; in the data set with Rattus norvegicus [12] it was 60 µM. The concentration in the data set on Rattus norvegicus [7] and with Rattus norvegicus [8] was 500 µM each time. Moreover, the outcome in the data set with Rattus norvegicus [9] was Active. The same compound yielded a clearance in data set [2] of 12 mL/min/kg. Further, the maximum concentration (Cmax) in data set [3] was determined as 350 nM. For the same compound, the EC50 in [10] was found to be 2700 nM. Also, in data set [4], the Vd turned out to be 1.8 L/kg. Also, in [11], the selectivity ratio was 8. The bioavailability in data set [5] was 17%.

For `O=C(CCc1noc2c1ccc1cc(O)ccc12)Nc1ccccc1C(=O)O`, the results for the IC50 in the data set with Adipocyte and against Cytochrome P450 2C9 were 150 nM and 0.99 µM, respectively.

In turn, `O=C(CCc1cn2c(n1)sc1cc(O)ccc12)NC1=C(C(=O)O)CCCC1` showed a half-life in data set [1] of 264 min. For the same compound, the IC50 in the data set on Adipocyte was 2600 nM; against Cytochrome P450 2C9, 12 µM. The compound further registered a clearance in [2] of 0.9 mL/min/kg. Besides, in [3], the Cmax stood at 3800 nM. Besides, in data set [4], the Vd worked out at 0.32 L/kg. The bioavailability in data set [5] was determined as 25%.

With `O=C(CCc1cnn2c1ccc1cc(O)ccc12)NC1=C(C(=O)O)CCCC1`, the IC50 came to 60 nM in the data set on Adipocyte and 19 µM at Cytochrome P450 2C9.

As to `Cn1nc(CCC(=O)Nc2ccccc2C(=O)O)c2c1-c1ccc(O)cc1CC2`, the IC50 against Cytochrome P450 2C9 amounted to 17 µM.

On to `O=C(CCc1ccc2c(ccc3[nH]ncc32)c1)Nc1ccccc1C(=O)O`, for which, in [1], the half-life was 210 min. The IC50 at Cytochrome P450 2C9 is under 0.14 µM. The compound further had a clearance in data set [2] of 0.6 mL/min/kg. Also, the peak level in data set [3] (Cmax) was 3900 nM. Also, in [4], the Vd is 0.19 L/kg. The bioavailability in data set [5] came out at 24%.

The compound `O=C(CCc1noc2c1ccc1c(Cl)c(O)ccc12)NC1=C(C(=O)O)CCCC1` showed an IC50 at Cytochrome P450 2C9 of 1.5 µM.

The compound `O=C(CCc1cn2c(n1)sc1ccccc12)Nc1ccccc1C(=O)O` showed an IC50 at Cytochrome P450 2C9 of 4.4 µM.

With `O=C(O)c1cccnc1` [NIACIN], the concentration in the data set with Rattus norvegicus [13] and with Rattus norvegicus [14] was 7.6 µM in each case. Besides, the values for the IC50 with Adipocyte and in the data set on Rattus norvegicus [12] were 70 nM and 5 µM, respectively.

At Cytochrome P450 2C9, `O=C(CCc1noc2c1ccc1c(F)c(O)ccc12)NC1=C(C(=O)O)CCCC1` registered an IC50 of 2 µM.

With `O=C(CCc1noc2c1Cc1cc(O)ccc1-2)Nc1ccccc1C(=O)O`, the IC50 came to 8.5 µM against Cytochrome P450 2C9 and 20 µM against Cytochrome P450 2C8.
